Measured values reported in paper PMC5482804, “YvcK, a protein required for cell wall integrity and optimal carbon source utilization, binds uridine diphosphate-sugars” (Scientific Reports, 2017).

What was measured:
YvcK [1] = target: T1, YvcK (Bacillus subtilis, UniProt O06974); assay: thermal shift assay (SYPRO Orange) with apparent KD; assay type: binding
T1 construct: gene mgfK; His6-tagged YvcK

YvcK [2] = target: T1, YvcK; assay: thermal shift assay (SYPRO Orange) with apparent KD; limited trypsin proteolysis; assay type: binding

T1 sequence (O06974 whole entry): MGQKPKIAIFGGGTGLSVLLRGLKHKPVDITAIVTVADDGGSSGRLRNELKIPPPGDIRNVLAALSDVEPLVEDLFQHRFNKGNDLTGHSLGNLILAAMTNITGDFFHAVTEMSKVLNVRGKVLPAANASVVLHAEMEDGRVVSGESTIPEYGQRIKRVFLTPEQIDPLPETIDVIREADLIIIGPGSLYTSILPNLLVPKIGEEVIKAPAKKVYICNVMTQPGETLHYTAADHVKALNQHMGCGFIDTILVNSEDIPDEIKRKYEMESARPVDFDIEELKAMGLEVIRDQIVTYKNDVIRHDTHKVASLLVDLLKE

Kd (YvcK [1]) [mM]	Kd (YvcK [2]) [mM]	Structure (SMILES)
6.21 ± 0.62		O=c1ccn([C@@H]2O[C@H](COP(=O)(O)OP(=O)(O)O)[C@@H](O)[C@H]2O)c(=O)[nH]1 [UDP]
	0.41 ± 0.24	CC(=O)N[C@H]1[C@@H](OP(=O)(O)OP(=O)(O)OC[C@H]2O[C@@H](n3ccc(=O)[nH]c3=O)[C@H](O)[C@@H]2O)O[C@H](CO)[C@@H](O)[C@@H]1O [UDP-GlcNAc]
